Measurements published in the NIST ThermoML archive (doi:10.1021/acs.jced.8b00036).
Values joined by “and” are separate entries in the source; they are usually repeats but may differ in a detail not shown here. Equal values may be shown once.

Conditions: Capillary tube (Ostwald / Ubbelohde) method

FCC(F)(F)F [1,1,1,2-tetrafluoroethane]
Liquid
Conditions	viscosity [mPa·s]
312.75 K, 4064 kPa	0.1723
312.76 K, 4069 kPa	0.1731
312.77 K, 3061 kPa	0.1681
312.78 K, 3042 kPa	0.1684
312.78 K, 3061 kPa	0.1682
312.82 K, 4048 kPa	0.173
312.83 K, 1706 kPa	0.1656
312.96 K, 1701 kPa	0.165
313.01 K, 1763 kPa	0.1654
313.5 K, 1796 kPa	0.1656
332.79 K, 3072 kPa	0.1279
332.79 K, 3083 kPa	0.1284
332.8 K, 3079 kPa	0.1282
332.8 K, 4005 kPa	0.1325
332.81 K, 4008 kPa	0.1324
332.81 K, 4011 kPa	0.1325
354.96 K, 4007 kPa	0.09565
355.51 K, 4078 kPa	0.09407
355.94 K, 4155 kPa	0.09335

FC(F)(F)/C=C\C(F)(F)F [(Z)-1,1,1,4,4,4-hexafluorobut-2-ene]
Conditions	viscosity
313.83 K, 513 kPa, Liquid	0.3037 mPa·s
313.84 K, 513 kPa, Liquid	0.3034 mPa·s
313.84 K, 514 kPa, Liquid	0.3036 mPa·s
313.92 K, 2053 kPa, Liquid	0.3115 mPa·s
313.94 K, 2037 kPa, Liquid	0.3097 mPa·s
313.94 K, 2996 kPa, Liquid	0.3143 mPa·s
313.94 K, 3001 kPa, Liquid	0.3146 mPa·s
313.94 K, 4041 kPa, Liquid	0.3198 mPa·s
313.95 K, 2025 kPa, Liquid	0.3098 mPa·s
313.95 K, 3000 kPa, Liquid	0.3143 mPa·s
313.95 K, 4049 kPa, Liquid	0.3197 mPa·s
313.96 K, 4002 kPa, Liquid	0.3194 mPa·s
314.26 K, 1040 kPa, Liquid	0.3074 mPa·s
314.27 K, 1041 kPa, Liquid	0.3068 mPa·s
314.31 K, 1050 kPa, Liquid	0.3081 mPa·s
331.5 K, 503 kPa, Liquid	0.2577 mPa·s
331.5 K, 505 kPa, Liquid	0.2579 mPa·s
331.51 K, 506 kPa, Liquid	0.2578 mPa·s
331.57 K, 2020 kPa, Liquid	0.2593 mPa·s and 0.2599 mPa·s
331.57 K, 2033 kPa, Liquid	0.26 mPa·s
331.81 K, 1002 kPa, Liquid	0.2579 mPa·s
331.82 K, 1017 kPa, Liquid	0.259 mPa·s
331.83 K, 1015 kPa, Liquid	0.2588 mPa·s
331.84 K, 4062 kPa, Liquid	0.2658 mPa·s
331.85 K, 4047 kPa, Liquid	0.2652 mPa·s
331.87 K, 4059 kPa, Liquid	0.2651 mPa·s
331.94 K, 3026 kPa, Liquid	0.2608 mPa·s
331.94 K, 3039 kPa, Liquid	0.2617 mPa·s
331.94 K, 3040 kPa, Liquid	0.2617 mPa·s
353.79 K, 4019 kPa, Liquid	0.2122 mPa·s
353.8 K, 4020 kPa, Liquid	0.212 mPa·s and 0.2117 mPa·s
353.99 K, 2066 kPa, Liquid	0.2011 mPa·s
353.99 K, 2067 kPa, Liquid	0.2011 mPa·s
354 K, 2064 kPa, Liquid	0.201 mPa·s
354.08 K, 3022 kPa, Liquid	0.2047 mPa·s
354.1 K, 3021 kPa, Liquid	0.2032 mPa·s
354.23 K, 1032 kPa, Liquid	0.1944 mPa·s
354.23 K, 1033 kPa, Liquid	0.1942 mPa·s
354.24 K, 1031 kPa, Liquid	0.193 mPa·s
374.43 K, 4050 kPa, Liquid	0.1702 mPa·s
374.43 K, 4056 kPa, Liquid	0.1702 mPa·s
374.44 K, 2025 kPa, Liquid	0.1613 mPa·s
374.44 K, 4050 kPa, Liquid	0.1705 mPa·s
374.45 K, 2025 kPa, Liquid	0.1618 mPa·s
374.46 K, 2025 kPa, Liquid	0.1611 mPa·s
374.74 K, 3026 kPa, Liquid	0.1632 mPa·s and 0.1645 mPa·s
374.75 K, 3026 kPa, Liquid	0.1635 mPa·s
374.87 K, 492 kPa, Gas	0.013 mPa·s
374.88 K, 492 kPa, Gas	0.01305 mPa·s
393.63 K, 3044 kPa, Liquid	0.1336 mPa·s
393.64 K, 3044 kPa, Liquid	0.1339 mPa·s
393.65 K, 3044 kPa, Liquid	0.1332 mPa·s
393.65 K, 4017 kPa, Liquid	0.1377 mPa·s and 0.138 mPa·s and 0.1378 mPa·s
394 K, 2016 kPa, Liquid	0.1278 mPa·s
394.01 K, 2016 kPa, Liquid	0.128 mPa·s
394.03 K, 2016 kPa, Liquid	0.1282 mPa·s
394.16 K, 499 kPa, Gas	0.01348 mPa·s
394.19 K, 499 kPa, Gas	0.01343 mPa·s
413.55 K, 4046 kPa, Liquid	0.1104 mPa·s
413.56 K, 4047 kPa, Liquid	0.11 mPa·s
413.63 K, 3011 kPa, Liquid	0.103 mPa·s
413.63 K, 3015 kPa, Liquid	0.103 mPa·s
413.75 K, 3010 kPa, Liquid	0.1029 mPa·s
413.99 K, 503 kPa, Gas	0.01378 mPa·s
414.21 K, 503 kPa, Gas	0.01361 mPa·s
414.24 K, 1014 kPa, Gas	0.01449 mPa·s
414.29 K, 1033 kPa, Gas	0.01434 mPa·s and 0.01444 mPa·s
434.12 K, 3016 kPa, Liquid	0.07044 mPa·s and 0.07094 mPa·s
434.13 K, 3016 kPa, Liquid	0.07045 mPa·s
434.23 K, 502 kPa, Gas	0.01388 mPa·s
434.23 K, 503 kPa, Gas	0.01384 mPa·s
434.28 K, 1011 kPa, Gas	0.01451 mPa·s
434.28 K, 1012 kPa, Gas	0.01443 mPa·s
434.37 K, 4014 kPa, Liquid	0.08047 mPa·s and 0.08072 mPa·s and 0.08096 mPa·s
454.24 K, 506 kPa, Gas	0.01429 mPa·s
454.27 K, 506 kPa, Gas	0.0143 mPa·s
454.34 K, 1003 kPa, Gas	0.01547 mPa·s and 0.01568 mPa·s
454.57 K, 2031 kPa, Gas	0.01628 mPa·s
454.58 K, 2030 kPa, Gas	0.01633 mPa·s
473.27 K, 509 kPa, Gas	0.02101 mPa·s
474.67 K, 500 kPa, Gas	0.0152 mPa·s
474.69 K, 500 kPa, Gas	0.01519 mPa·s
474.82 K, 999 kPa, Gas	0.01587 mPa·s
474.83 K, 2004 kPa, Gas	0.0169 mPa·s
474.84 K, 2004 kPa, Gas	0.01661 mPa·s
474.85 K, 1000 kPa, Gas	0.01579 mPa·s
